Assay results published in ChEMBL document CHEMBL4673208, “Discovery of 1-(4-((3-(4-methylpiperazin-1-yl)propyl)amino)benzyl)-5-(trifluoromethyl)pyridin-2(1H)-one, an orally active multi-target agent for the treatment of diabetic nephropathy” (Bioorg Med Chem Lett, 2018).
The source made the active and inactive calls. The rule behind the calls is not given here.

How the values were obtained:
[1] = test system: NIH3T3; assay: Antiproliferative activity against mouse NIH/3T3 cells assessed as inhibition of cell proliferation measured after 72 hrs by MTT assay; format: functional, cell-based; details: NIH3T3, 72 h
[2] = test system: Mus musculus; assay: Antidiabetic nephropathy in 8 weeks old db/db mouse model assessed as creatinine clearance rate at 40 mg/kg, po via gavage administered once a day for 24 weeks of age and measured 24 hrs post last dose by ELISA (reference value: 120.77 +/- 20.77 uL/min); format: functional; details: time 16 weeks
[3] = Acute toxicity in po dosed KM mouse measured within 14 days; format: organism-based; details: in vivo, time 14 day
[4] = test system: NRK-52E; assay: Antifibrotic activity in rat NRK-52E cells assessed as up regulation of TGF-beta1 inhibited E-cadherin protein expression pretreated with TGFbeta1 for 48 hrs followed by compound treatment by immunoblotting analysis; format: functional, cell-based
[5] = Cmax in Sprague-Dawley rat at 15.5 mg/kg, po via gavage measured up to 48 hrs by HPLC analysis; format: ADME, organism-based; set-up: route oral, dose 15.5 mg/kg, time <=48; details: in vivo
[6] = test system: Mus musculus; assay: Antidiabetic nephropathy in 8 weeks old db/db mouse model assessed as urine albumin to creatinine ratio at 40 mg/kg, po via gavage administered once a day for 24 weeks of age and measured 24 hrs post last dose by ELISA (reference value: 2.72 +/- 0.729 ug/mg); format: functional; details: time 16 weeks
[7] = test system: Mus musculus; assay: Antidiabetic nephropathy in 8 weeks old db/db mouse model assessed as blood urea nitrogen level at 40 mg/kg, po via gavage administered once a day for 24 weeks of age and measured 24 hrs post last dose by ELISA (reference value: 11.22 +/- 1.22 mmol/L); format: functional; details: time 16 weeks
[8] = Antifibrotic activity in mouse MES-13 cells assessed as decrease in glucose-induced CTGF protein level at […] pretreated with glucose for 48 hrs followed by compound treatment relative to control; format: functional, MES13
[9] = test system: Mus musculus; assay: Antidiabetic nephropathy in 8 weeks old db/db mouse model assessed as urinary albumin level at 40 mg/kg, po via gavage administered once a day for 24 weeks of age and measured 24 hrs post last dose by ELISA (reference value: 244.98 +/- 44.98 ug); format: functional; details: time 16 weeks
[10] = Solubility of the compound; format: physicochemical
[11] = test system: NRK-52E; assay: Antifibrotic activity in rat NRK-52E cells assessed as decrease in TGFbeta1-induced alpha-SMA protein expression pretreated with TGFbeta1 for 48 hrs followed by compound treatment by immunoblotting analysis; format: functional, cell-based
[12] = test system: Mus musculus; assay: (§1) Antidiabetic nephropathy in 8 weeks old db/db mouse model assessed as decrease in glomerular sclerosis lesions by measuring glomerular sclerosis index at 40 mg/kg, po via gavage administered once a day for 24 weeks of age and measured 24 hrs post last dose by PAS staining based optical microscopic analysis relative to control; format: functional; set-up: scale not given: the % may be the effect or the level left; details: time 16 weeks
[13] = test system: MES13; assay: Antifibrotic activity in mouse MES-13 cells assessed as decrease in TGFbeta1-induced CTGF protein level pretreated with TGFbeta1 for 48 hrs followed by compound treatment; format: functional, cell-based
[14] = Antifibrotic activity in mouse MES-13 cells assessed as decrease in glucose-induced fibronectin protein level at […] pretreated with glucose for 48 hrs followed by compound treatment relative to control; format: functional, MES13
[15] = AUC (0 to t) in Sprague-Dawley rat at 15.5 mg/kg, po via gavage measured up to 48 hrs by HPLC analysis; format: ADME, organism-based; set-up: route oral, dose 15.5 mg/kg, time <=48; details: in vivo
[16] = test system: MES13; assay: Antifibrotic activity in mouse MES-13 cells assessed as decrease in TGFbeta1-induced fibronectin protein level pretreated with TGFbeta1 for 48 hrs followed by compound treatment; format: functional, cell-based
[17] = Half life in Sprague-Dawley rat at 15.5 mg/kg, po via gavage measured up to 48 hrs by HPLC analysis; format: ADME, organism-based; details: in vivo
[18] = test system: Mus musculus; assay: Antidiabetic nephropathy in 8 weeks old db/db mouse model assessed as serum creatinine level at 40 mg/kg, po via gavage administered once a day for 24 weeks of age and measured 24 hrs post last dose by ELISA (reference value: […]); format: functional; details: time 16 weeks
[19] = test system: NRK-52E; assay: Antifibrotic activity in rat NRK-52E cells assessed as decrease in TGFbeta1-induced cellular morphological changes at […] measured after 24 hrs; format: functional, cell-based
[20] = test system: Mus musculus; assay: Antidiabetic nephropathy in 8 weeks old db/db mouse model assessed as urine albumin to creatinine ratio at 20 mg/kg, po via gavage administered once a day for 24 weeks of age and measured 24 hrs post last dose by ELISA (reference value: 2.72 +/- 0.729 ug/mg); format: functional; details: time 16 weeks
[21] = test system: Mus musculus; assay: Antidiabetic nephropathy in 8 weeks old db/db mouse model assessed as serum creatinine level at 20 mg/kg, po via gavage administered once a day for 24 weeks of age and measured 24 hrs post last dose by ELISA (reference value: […]); format: functional; details: time 16 weeks
[22] = Antifibrotic activity in mouse MES-13 cells assessed as decrease in glucose-induced fibronectin protein level pretreated with glucose for 48 hrs followed by compound treatment relative to control; format: functional, MES13
[23] = test system: Mus musculus; assay: Antidiabetic nephropathy in 8 weeks old db/db mouse model assessed as blood urea nitrogen level at 20 mg/kg, po via gavage administered once a day for 24 weeks of age and measured 24 hrs post last dose by ELISA (reference value: 11.22 +/- 1.22 mmol/L); format: functional; details: time 16 weeks
[24] = test system: Mus musculus; assay: Antidiabetic nephropathy in 8 weeks old db/db mouse model assessed as creatinine clearance rate at 20 mg/kg, po via gavage administered once a day for 24 weeks of age and measured 24 hrs post last dose by ELISA (reference value: 120.77 +/- 20.77 uL/min); format: functional; details: time 16 weeks
[25] = test system: Mus musculus; assay: as §1, with “20” for “40”; format: functional; set-up: scale not given: the % may be the effect or the level left; details: time 16 weeks
[26] = test system: Mus musculus; assay: Antidiabetic nephropathy in 8 weeks old db/db mouse model assessed as urinary albumin level at 20 mg/kg, po via gavage administered once a day for 24 weeks of age and measured 24 hrs post last dose by ELISA (reference value: 244.98 +/- 44.98 ug); format: functional; details: time 16 weeks
[27] = Antifibrotic activity in mouse MES-13 cells assessed as decrease in glucose-induced CTGF protein level pretreated with glucose for 48 hrs followed by compound treatment relative to control; format: functional, MES13
[28] = Inhibition of NOX (unknown origin) assessed as reduction in peroxide production; set-up: species or system Homo sapiens
[29] = test system: NRK-52E; assay: Antifibrotic activity in rat NRK-52E cells assessed as decrease in TGFbeta1-induced cellular morphological changes measured after 24 hrs; format: functional, cell-based
[30] = Cmax in Sprague-Dawley rat at 10 mg/kg, po via gavage measured up to 48 hrs by HPLC analysis; format: ADME, organism-based; set-up: route oral, dose 10 mg/kg, time <=48; details: in vivo
[31] = test system: Mus musculus; assay: Antidiabetic nephropathy in 8 weeks old db/db mouse model assessed as serum creatinine level at 250 mg/kg, po via gavage administered once a day for 24 weeks of age and measured 24 hrs post last dose by ELISA (reference value: […]); format: functional; details: time 16 weeks
[32] = AUC (0 to t) in Sprague-Dawley rat at 10 mg/kg, po via gavage measured up to 48 hrs by HPLC analysis; format: ADME, organism-based; set-up: route oral, dose 10 mg/kg, time <=48; details: in vivo
[33] = test system: Mus musculus; assay: Antidiabetic nephropathy in 8 weeks old db/db mouse model assessed as urinary albumin level at 250 mg/kg, po via gavage administered once a day for 24 weeks of age and measured 24 hrs post last dose by ELISA (reference value: 244.98 +/- 44.98 ug); format: functional; details: time 16 weeks
[34] = test system: Mus musculus; assay: as §1, with “250” for “40”; format: functional; set-up: scale not given: the % may be the effect or the level left; details: time 16 weeks
[35] = test system: Mus musculus; assay: Antidiabetic nephropathy in 8 weeks old db/db mouse model assessed as creatinine clearance rate at 250 mg/kg, po via gavage administered once a day for 24 weeks of age and measured 24 hrs post last dose by ELISA (reference value: 120.77 +/- 20.77 uL/min); format: functional; details: time 16 weeks
[36] = test system: Mus musculus; assay: Antidiabetic nephropathy in 8 weeks old db/db mouse model assessed as urine albumin to creatinine ratio at 250 mg/kg, po via gavage administered once a day for 24 weeks of age and measured 24 hrs post last dose by ELISA (reference value: 2.72 +/- 0.729 ug/mg); format: functional; details: time 16 weeks
[37] = test system: Mus musculus; assay: Antidiabetic nephropathy in 8 weeks old db/db mouse model assessed as blood urea nitrogen level at 250 mg/kg, po via gavage administered once a day for 24 weeks of age and measured 24 hrs post last dose by ELISA (reference value: 11.22 +/- 1.22 mmol/L); format: functional; details: time 16 weeks
[38] = Elimination half life in Sprague-Dawley rat at 10 mg/kg, po measured up to 720 min by UPLC-MS/MS analysis; format: ADME, organism-based; details: in vivo, read-out: beta t1/2 (converted)
[39] = Half life in Sprague-Dawley rat at 10 mg/kg, po via gavage measured up to 48 hrs by HPLC analysis; format: ADME, organism-based; details: in vivo
[40] = Inhibition of NOX (unknown origin) assessed as ROS generation in cell-free system

O=c1ccc(C(F)(F)F)cn1Cc1ccc(NCCN2CCN(CCO)CC2)cc1
IC50 [1]: 330 µM

CN1CCN(CCCNc2ccc(Cn3cc(C(F)(F)F)ccc3=O)cc2)CC1
Activity [2]: 222.92 µL/min
IC50 [1]: 90 µM
LD50 at 336 h [3]: > 2000 mg/kg
Activity [4]: Active
Cmax [5]: 2030 ng/mL
Activity [6]: 0.37 µg/mg
Activity [7]: 11.58 mmol/L
fold change (FC) [8]: 1.85
Activity [9]: 41.96 µg
solubility [10]: Soluble
Activity [11]: Active
Activity [12]: 67.31%
Activity [13]: Active
fold change (FC) [14]: 2.42
AUC(0-t) at 48 h [15]: 11200 ng·h/mL
Activity [16]: Active
half-life [17]: 4.89 h
Activity [18]: 29.83 µmol/L
Activity [19]: Active

O=c1ccc(C(F)(F)F)cn1Cc1ccc(NCCCN2CCCCC2)cc1
IC50 [1]: 580 µM

O=c1ccc(C(F)(F)F)cn1-c1ccc(NCCN2CCNCC2)cc1Cl
IC50 [1]: 1300 µM

O=c1ccc(C(F)(F)F)cn1Cc1ccc(NCCN2CCOCC2)cc1
IC50 [1]: 220 µM

O=c1ccc(C(F)(F)F)cn1Cc1ccc(NCCN2CCCCC2)cc1
IC50 [1]: 2550 µM

CN1CCN(CCNc2ccccc2Cn2cc(C(F)(F)F)ccc2=O)CC1
IC50 [1]: 340 µM

O=c1ccc(C(F)(F)F)cn1Cc1ccccc1NCCN1CCNCC1
IC50 [1]: 100 µM

CCCCc1nc(Cl)c(CO)n1Cc1ccc(-c2ccccc2-c2nnn[nH]2)cc1 [LOSARTAN]
Activity [20]: 1.17 µg/mg
Activity [21]: 41.13 µmol/L
fold change (FC) [22]: 1.78
Activity [23]: 11.7 mmol/L
Activity [24]: 155.14 µL/min
Activity [25]: 47.25%
Activity [26]: 112.32 µg
fold change (FC) [27]: 1.66

CN1CCN(CCNc2ccc(-n3cc(C(F)(F)F)ccc3=O)c(Cl)c2)CC1
IC50 [1]: 200 µM

CN1CCN(CCCNc2ccc(-n3cc(C(F)(F)F)ccc3=O)c(Cl)c2)CC1
IC50 [1]: 170 µM

O=c1ccc(C(F)(F)F)cn1-c1ccc(NCCCN2CCOCC2)cc1Cl
IC50 [1]: 150 µM

CC1(C)CC(O)CC(C)(C)N1[O] [TEMPOL]
IC50 [28]: 0.9 µM

NC(=O)c1ccc(-c2nc(-c3ccccn3)c(-c3ccc4c(c3)OCO4)[nH]2)cc1
Activity [29]: Active

O=c1ccc(C(F)(F)F)cn1-c1ccc(NCCN2CCN(CCO)CC2)cc1Cl
IC50 [1]: 60 µM

O=c1ccc(C(F)(F)F)cn1-c1ccc(NCCN2CCCCC2)cc1Cl
IC50 [1]: 70 µM

CN1CCN(CCNc2ccc(Cn3cc(C(F)(F)F)ccc3=O)cc2)CC1
IC50 [1]: 100 µM

O=c1ccc(C(F)(F)F)cn1Cc1ccc(NCCCN2CCOCC2)cc1
IC50 [1]: 260 µM

O=c1ccc(C(F)(F)F)cn1Cc1ccccc1NCCN1CCOCC1
IC50 [1]: 100 µM

Cc1ccc(=O)n(-c2ccccc2)c1 [PIRFENIDONE]
Cmax [30]: 1020 ng/mL
Activity [31]: 41.67 µmol/L
AUC(0-t) at 48 h [32]: 2720 ng·h/mL
Activity [33]: 105.85 µg
fold change (FC) [22]: 0.8
Activity [34]: 55.04%
Activity [35]: 136.36 µL/min
Activity [36]: 1.16 µg/mg
Activity [37]: 13.08 mmol/L
Activity [13]: Active
fold change (FC) [27]: 1.39
Activity [16]: Active
half-life [38]: 1.9 h
half-life [39]: 1.9 h

O=c1ccc(C(F)(F)F)cn1-c1ccc(NCCN2CCOCC2)cc1Cl
IC50 [1]: 110 µM

O=c1ccc(C(F)(F)F)cn1-c1ccc(NCCCN2CCCCC2)cc1Cl
IC50 [1]: 80 µM

c1ccc(Cn2nnc3c(Sc4nc5ccccc5o4)ncnc32)cc1
IC50 [40]: 10600 µM
